Measurements: patent publication US20250041303A1, “COMBINATION THERAPY FOR CANCER TREATMENT” (INSTITUTE FOR CANCER RESEARCH D/B/A THE RESEARCH INSTITUTE …, priority 2021, published 2025)

What was measured:
[1] = tested on: A1847 and SUM159 parental and degrader-resistant cells; test: CellTiter-Glo cell viability, parental vs degrader-resistant cells
[2] = target: T1, BRD4 (BET proteins) (Homo sapiens, UniProt O60885); test: Western blot of BET protein/BRD4 degradation in DLD-1 cells; type: cell-based; conditions: 4 hours; for dBET6-mediated degradation of BRD4 on combined treatment: increasing doses of dBET6 plus the compound at 2 μM
T1 construct: endogenous in cells; host or cells: DLD-1
Experimental: (§2) Samples were harvested in MIB lysis buffer (50 mM HEPES (pH 7.5), 0.5% Triton X-100, 150 mM NaCl, 1 mM EDTA, 1 mM EGTA, 10 mM sodium fluoride, 2.5 mM sodium orthovanadate, 1× protease inhibitor cocktail (Roche), and 1% each of phosphatase inhibitor cocktails 2 and 3 (Sigma)). Particulate was removed by centrifugation of lysates at 21,000 rpm for 15 minutes at 4° C. Lysates were subjected to SDS-PAGE chromatography and transferred to PVDF membranes before western blotting with primary antibodies. […] Secondary HRP-anti-rabbit and HRP-anti-mouse were obtained from ThermoFisher Scientific. SuperSignal West Pico and Femto Chemiluminescent Substrates (Thermo) were used to visualize blots.

[3] = target: T2, MDR1 (Homo sapiens, UniProt P08183); test: Rhodamine 123 efflux assay in degrader-resistant cells; type: cell-based; set-up: endogenous in cells; host or cells: A1847 parental, dBET6-R, Thal-R; SUM159 parental, MZ1-R; conditions: 2 μM
Experimental: (§1) Efflux assay was performed according to manufacturer's protocol (Millipore Sigma #ECM910). Cells were resuspended in cold efflux buffer and incubated with Rhodamine 123 for 1 hour on ice. Cells were centrifuged and treated in warm efflux buffer with DMSO or drug for 30-60 minutes, washed with cold PBS, and effluxed dye was quantified with a plate reader at an excitation wavelength of 485 nm and an emission wavelength of 530 nm.

[4] = tested on: DLD-1 cells; test: Colony formation assay (14 days) in DLD-1 cells; conditions: for colony formation on co-treatment with dBET6: dBET6 0.1 μM plus the compound at 2 μM, 14-day period
[5] = tested on: HCT-15, DLD-1 and CAKI-1 cells (MDR1 overexpressing); test: CellTiter-Glo cell viability of MDR1 overexpressing vs low MDR1 cancer cell lines; conditions: HCT-15, DLD-1, CAKI-1 vs A1847, SUM159, MOLT4; escalating doses, 5 days
[6] = tested on: BET proteins (BRD2, BRD3 or BRD4); test: Western blot of BET protein degradation, parental vs degrader-resistant cells; type: cell-based; conditions: for degradation of BET proteins by escalating doses: 0-10 μM, 24 hours
Experimental: as §2

[7] = tested on: A1847 or SUM159 cells; test: Colony formation assay (14 days, crystal violet); conditions: SUM159 cells expressing Flag-MDR1, MZ1 0.1 μM, with or without tariquidar 0.1 μM
[8] = tested on: ABCB1 (MDR1); test: ABCB1 expression and MDR1 protein by qRT-PCR and immunoblot after chronic MZ1 exposure; type: cell-based
Experimental: GeneJET RNA purification kit (Thermo Scientific) was used to isolate RNA from cells according to manufacturer's instructions. qRT-PCR on diluted cDNA was performed with inventoried TaqMan® Gene Expression Assays on the Applied Biosystems 7500 Fast Real-Time PCR System. The TaqMan Gene Expression Assay probes (ThermoFisher Scientific) used to assess changes in gene expression include ABCB1 (Assay ID: Hsxxxx), and ACTB (control) (Assay ID: Hsxxxx).

[9] = tested on: OVCAR3, HCT116, and MOLT4 cells; test: CellTiter-Glo cell viability, parental vs MZ1 chronically exposed cells; conditions: 5 days
[10] = tested on: MDR1 (ABCB1); test: Single-run proteomics (LC-MS/MS, label-free quantitation) of degrader-resistant cells; type: cell-based, human
Experimental: To determine changes in cells chronically exposed to BET or CDK9 PROTACs, we performed single-run proteome analysis as previously described (Lai et al., Front. Oncol., 2020, 10, 2336). Briefly, WT or PROTAC-R cells were lysed in 50 mM HEPES pH 8.0+4% SDS, and 100 μg of proteins were digested using LysC and trypsin. Digested peptides were isolated using C-18 and PGC columns, then dried and cleaned with ethyl acetate. Three […] peptides were analyzed using LC-MS/MS. MaxQuant normalized LFQ values were imported into Perseus software (1.6.2.3) and filtered in the following manner: kinases identified by site only were removed, reverse, or potential contaminant were removed then filtered for kinases identified by >1 unique peptide. Protein LFQ values were log 2 transformed, filtered for a minimum valid number of 3, normalized using Z-scores, annotated, and subjected to a Student's t-test with comparing […]. […]
Proteolytic peptides were resuspended in 0.1% formic acid and separated with a Thermo Scientific RSLC nano Ultimate 3000 LC on a Thermo Scientific Easy-Spray C18 PepMap 75 μm×50 cm C-18 2 μm column. […] Eluted peptides were analyzed by Thermo Scientific Q Exactive or Q Exactive plus mass spectrometers utilizing a top 15 methodology in which the 15 most intense peptide precursor ions were subjected to fragmentation. […]
Raw data analysis of LFQ experiments was performed using MaxQuant software 1.6.1.0 and searched using Andromeda 1.5.6.0 against the Swiss-Prot human protein database (downloaded on Apr. 24, 2019, 20402 entries). […] LFQ quantitation was performed using MaxQuant with the following parameters; LFQ minimum ratio count: Global parameters for protein quantitation were as follows: label minimum ratio count: 1, peptides used for quantitation: unique, only use modified proteins selected and with normalized average ratio estimation selected. Match between runs was employed for LFQ quantitation and the significance threshold of the ion score was calculated based on a false discovery rate of <1%.

[11] = target: T2, MDR1; test: Rhodamine 123 efflux assay in DLD-1 cells; type: cell-based; set-up: endogenous in cells; conditions: 2 μM
Experimental: as §1

[12] = target: T3, CDK9 (Homo sapiens, UniProt P50750); test: Western blot of CDK9 degradation, A1847 parental vs Thal-R cells; type: cell-based; conditions: A1847 Thal-R vs parental; 2 μM, 4 hours
Experimental: as §2

[13] = tested on: A1847 dBET6-R or Thal-R cells; test: Apoptosis by western blot in degrader-resistant A1847 cells; type: cell-based; conditions: 2 μM, 4 hours
Experimental: as §2

[14] = target: T3, CDK9; test: Western blot of CDK9 degradation in DLD-1 cells; type: cell-based; set-up: endogenous in cells; host or cells: DLD-1; conditions: DLD-1; increasing doses of Thal SNS 032 plus the compound at 2 μM, 4 hours
Experimental: as §2

[15] = A1847 parental vs chronically exposed cells, escalating doses, 5 days

T2 sequence (P08183 whole entry): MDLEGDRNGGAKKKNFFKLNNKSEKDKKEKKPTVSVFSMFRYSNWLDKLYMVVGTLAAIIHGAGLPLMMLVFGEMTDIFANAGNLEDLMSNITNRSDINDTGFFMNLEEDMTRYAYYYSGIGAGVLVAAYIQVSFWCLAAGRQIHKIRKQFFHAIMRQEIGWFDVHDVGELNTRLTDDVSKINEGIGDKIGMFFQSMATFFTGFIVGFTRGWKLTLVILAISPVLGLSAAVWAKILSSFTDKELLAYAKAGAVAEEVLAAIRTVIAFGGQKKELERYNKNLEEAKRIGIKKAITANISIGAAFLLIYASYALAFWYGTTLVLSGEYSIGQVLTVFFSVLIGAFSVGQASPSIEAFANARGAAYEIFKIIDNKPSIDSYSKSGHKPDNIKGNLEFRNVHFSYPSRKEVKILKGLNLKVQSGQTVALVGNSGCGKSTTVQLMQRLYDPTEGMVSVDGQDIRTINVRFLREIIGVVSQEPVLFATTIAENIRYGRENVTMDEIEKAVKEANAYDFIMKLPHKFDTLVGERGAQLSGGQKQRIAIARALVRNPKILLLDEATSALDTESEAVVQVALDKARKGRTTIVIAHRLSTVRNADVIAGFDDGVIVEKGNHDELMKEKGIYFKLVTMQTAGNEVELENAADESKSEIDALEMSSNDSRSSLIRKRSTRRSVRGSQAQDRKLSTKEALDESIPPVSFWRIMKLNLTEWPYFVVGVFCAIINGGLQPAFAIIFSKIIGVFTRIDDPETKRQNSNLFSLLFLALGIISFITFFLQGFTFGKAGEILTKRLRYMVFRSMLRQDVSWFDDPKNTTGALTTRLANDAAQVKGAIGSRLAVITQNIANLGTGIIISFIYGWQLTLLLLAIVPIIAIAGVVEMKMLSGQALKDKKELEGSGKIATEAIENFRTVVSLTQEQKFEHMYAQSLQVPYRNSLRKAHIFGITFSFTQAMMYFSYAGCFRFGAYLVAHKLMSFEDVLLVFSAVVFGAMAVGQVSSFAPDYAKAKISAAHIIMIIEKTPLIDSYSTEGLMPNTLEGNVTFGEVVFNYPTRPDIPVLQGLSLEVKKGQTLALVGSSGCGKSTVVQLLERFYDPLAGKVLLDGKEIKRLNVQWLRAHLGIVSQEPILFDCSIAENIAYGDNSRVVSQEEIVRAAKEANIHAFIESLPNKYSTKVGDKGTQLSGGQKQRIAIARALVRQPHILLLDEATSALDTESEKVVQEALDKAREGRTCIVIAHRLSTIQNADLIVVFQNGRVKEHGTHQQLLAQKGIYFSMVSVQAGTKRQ
T3 sequence (P50750 whole entry): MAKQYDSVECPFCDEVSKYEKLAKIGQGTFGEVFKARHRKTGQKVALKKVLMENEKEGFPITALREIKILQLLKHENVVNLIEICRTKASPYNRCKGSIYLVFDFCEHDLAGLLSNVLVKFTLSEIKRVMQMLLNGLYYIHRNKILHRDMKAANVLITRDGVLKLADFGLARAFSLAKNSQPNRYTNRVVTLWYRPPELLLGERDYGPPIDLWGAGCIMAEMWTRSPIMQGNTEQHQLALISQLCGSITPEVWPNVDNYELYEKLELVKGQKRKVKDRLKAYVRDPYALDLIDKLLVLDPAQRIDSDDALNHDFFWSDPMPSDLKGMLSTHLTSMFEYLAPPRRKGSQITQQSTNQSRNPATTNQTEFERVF
T3 sequence (O60563 whole entry partner): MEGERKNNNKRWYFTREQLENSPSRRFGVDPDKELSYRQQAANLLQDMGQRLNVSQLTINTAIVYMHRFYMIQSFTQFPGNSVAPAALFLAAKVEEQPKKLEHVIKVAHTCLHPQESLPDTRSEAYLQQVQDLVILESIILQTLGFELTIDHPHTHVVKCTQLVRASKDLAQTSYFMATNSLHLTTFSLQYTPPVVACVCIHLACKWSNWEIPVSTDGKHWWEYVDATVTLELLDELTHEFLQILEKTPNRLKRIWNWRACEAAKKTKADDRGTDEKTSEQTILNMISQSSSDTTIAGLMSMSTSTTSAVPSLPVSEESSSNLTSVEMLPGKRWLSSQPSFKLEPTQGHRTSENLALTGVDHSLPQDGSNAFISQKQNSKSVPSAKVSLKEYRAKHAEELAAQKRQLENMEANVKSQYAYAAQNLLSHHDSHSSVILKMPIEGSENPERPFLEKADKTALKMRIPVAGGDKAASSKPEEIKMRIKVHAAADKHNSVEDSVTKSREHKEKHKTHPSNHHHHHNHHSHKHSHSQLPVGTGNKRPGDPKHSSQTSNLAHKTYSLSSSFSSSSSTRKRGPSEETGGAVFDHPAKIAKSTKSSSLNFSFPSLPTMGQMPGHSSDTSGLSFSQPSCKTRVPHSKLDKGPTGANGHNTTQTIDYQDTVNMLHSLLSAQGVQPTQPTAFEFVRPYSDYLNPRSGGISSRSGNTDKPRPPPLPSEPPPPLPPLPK

Question: `Cc1sc2c(c1C)C(c1ccc(Cl)cc1)=N[C@@H](CC(=O)OC(C)(C)C)c1nnc(C)n1-2` [JQ1] was tested. Which “sensitization to tariquidar after chronic exposure” value ([1]; A1847 JQ1-R vs parental and dBET6-R cells) did it give?
Answer: The value was “did not cause sensitization to tariquidar”.

Question: `COc1ccc(-c2ccc3c(N4CCOCC4)nc(N4C[C@@H](C)O[C@@H](C)C4)nc3n2)cc1CO` [KU-0063794] was tested. Which “dBET6-mediated degradation of BRD4 on combined treatment” value [2] did it give?
Answer: Its value is “failed to improve degradation of BRD4”.

Question: And the “MDR1 drug efflux activity (Rhodamine 123 efflux)” value ([3]; A1847 Thal-R cells)?
Answer: Its value is “does not reduce MDR1 drug efflux activity”.

Question: What about the “colony formation, single agent” value ([4]; 2 μM, 14 days) of the same compound?
Answer: Its value is “completely repressed colony formation”.

Question: What about the “colony formation on co-treatment with dBET6” value [4] of the same compound?
Answer: Its value is “did not improve growth inhibition”.

Question: What does the source list for `Cc1ncsc1-c1ccc(CNC(=O)[C@@H]2C[C@@H](O)CN2C(=O)[C@@H](NC(=O)COCCOCCOCCNC(=O)C[C@@H]2N=C(c3ccc(Cl)cc3)c3c(sc(C)c3C)-n3c(C)nnc32)C(C)(C)C)cc1` [MZ1]?
Answer: cell viability of MDR1 overexpressing cells [5]: did not reduce cell viability to the extent of cancer cell lines expressing low or no detectable MDR1 protein; degradation of BET proteins by escalating doses ([6]; A1847 parental vs chronically exposed cells): less effective at inducing degradation of BET proteins; degradation of BET proteins by escalating doses ([6]; SUM159 parental vs MZ1-R cells): less effective at inducing degradation of BET proteins; colony formation with forced expression of Flag-MDR1 [7]: rescued colony formation growth; ABCB1 expression after chronic exposure ([8]; MOLT4 cells): do not induce ABCB1 expression; MDR1 mRNA and protein levels after chronic exposure ([8]; OVCAR3 and HCT116 MZ1-R cells): elevated MDR1 mRNA and protein levels; acquired resistance (cell viability dose-response) [1, 15]: acquire resistance; acquired resistance (cell viability dose-response) ([1]; SUM159 parental vs chronically exposed (MZ1-R) cells, 5 days): resulted in degrader-resistance; sensitivity after chronic exposure (cell viability) ([9]; MOLT4 parental or MZ1-R cells): retain sensitivity; acquired resistance (cell viability) ([9]; OVCAR3 and HCT116, chronic exposure): acquired resistance; MDR1 protein levels upregulated relative to parental cell lines by LFQ analysis ([10]; A1847 cells chronically exposed to the degrader (degrader-R) vs parental): 5-5 fold; MDR1 protein increase compared to parental cells (proteomics) ([10]; SUM159 MZ1-R cells vs parental): ~4.5 fold

Question: What does the source list for `CO[C@H]1C[C@@H]2CC[C@@H](C)[C@@](O)(O2)C(=O)C(=O)N2CCCC[C@H]2C(=O)O[C@H]([C@H](C)C[C@@H]2CC[C@@H](OCCO)[C@H](OC)C2)CC(=O)[C@H](C)/C=C(\C)[C@@H](O)[C@@H](OC)C(=O)[C@H](C)C[C@H](C)/C=C/C=C/C=C/1C` [RAD001, Everolimus]?
Answer: MDR1 drug efflux activity (Rhodamine 123 efflux) [11]: reduced MDR1 drug efflux activity similar to tariquidar-treatment; degradation of BET proteins in degrader-resistant cell lines ([6]; A1847 dBET6-R or MZ1-R vs parental, 2 μM, 4 hours): resulted in degradation of BET proteins; reduction in concentrations of dBET6 required to degrade BRD4 when combined ([2]; combined with the compound at 2 μM): 100 fold; dBET6-mediated degradation of BRD4 on combined treatment [2]: improved dBET6-mediated degradation of BRD4; degradation of CDK9 in degrader-resistant cell lines [12]: resulted in degradation of BET proteins (FIG. 5, Panel G; FIG. 12, Panels E and F) or CDK9; sensitivity of degrader-resistant cells vs parental cells (cell viability) ([1]; increasing concentrations, A1847 dBET6-R, Thal-R, MZ1-R and SUM159 MZ1-R): more sensitive; MDR1 drug efflux activity (Rhodamine 123 efflux) ([3]; A1847 dBET6-R or Thal-R cell lines): reduced MDR1 drug efflux activity similar to that observed with tariquidar; apoptosis in degrader-resistant cell lines [13]: resulted in apoptosis similar to tariquidar treatment; degradation of CDK9 by Thal SNS 032 on combined treatment [14]: improving degradation of CDK9; growth inhibition of colonies on combination with Thal SNS 032 ([4]; compound at 2 μM, 14 days): enhancing growth inhibition of colonies; colony formation on co-treatment with dBET6 [4]: exhibits drug synergy

Question: Which “MDR1 drug efflux activity (Rhodamine 123 efflux)” value ([3]; A1847 Thal-R cells) does the source give for `CN(C)C/C=C/C(=O)Nc1cc2c(Nc3ccc(F)c(Cl)c3)ncnc2cc1O[C@H]1CCOC1` [afatinib] here?
Answer: Its value is “does not reduce MDR1 drug efflux activity”.

Question: Which “cell viability of MDR1 overexpressing cells” value [5] does the source give for `Cc1sc2c(c1C)C(c1ccc(Cl)cc1)=N[C@@H](CC(=O)NCCCCCCCCNC(=O)COc1cccc3c1C(=O)N(C1CCC(=O)NC1=O)C3=O)c1nnc(C)n1-2` (some centres unmarked) [dBET6] here?
Answer: The value was “did not reduce cell viability to the extent of cancer cell lines expressing low or no detectable MDR1 protein”.

Question: And the “acquired resistance (cell viability dose-response)” value [1, 15]?
Answer: Its value is “acquire resistance”.

Question: `CC(=O)O[C@H]1C(=O)[C@@]2(C)[C@H]([C@H](OC(=O)c3ccccc3)[C@]3(O)C[C@H](OC(=O)[C@H](O)[C@@H](NC(=O)c4ccccc4)c4ccccc4)C(C)=C1C3(C)C)[C@]1(OC(C)=O)CO[C@@H]1C[C@@H]2O` [paclitaxel] was tested. Which “resistance to MDR1 substrate (cell viability)” value ([1]; BET protein or CDK9 degrader-resistant A1847 cells vs parental, 5 days) did it give?
Answer: The value was “acquired resistance”.
